The test system of the assay is lung cancer cell line NCI-H82. The assay is described as follows: Cell proliferation assay, NCI-H82 (CELL-TITER GLO). The assay is classed as cell-based. To be noted: Homo sapiens, NCI-H82, 72 h, NCI-H82 cells, 72 h incubation, cell viability by CELL-TITER GLO, top concentration 1 μM; read-out: EC50, Inhibition of NCl-H82 Cell Proliferation. The essentials:
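NCI-H82 cells, 1,000 per well in RPMI1640, were treated after overnight plating with a 3-fold dilution series from 1 μM. Viability read by CellTiter-Glo luminescence after 72 h. EC50 derived from the curves.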

Our source for the EC50 values is patent US20240101546A1, “HETEROARYL-ACETYLENES, PHARMACEUTICAL COMPOSITIONS THEREOF, AND THEIR THERAPEUTIC APPLICATIONS” (Eubulus Biotherapeutics Inc., priority 2020, published 2024).

Turning to `C#Cc1nc(NC(=O)NCC2CCC(c3cccc(C4(C#N)CC4)c3)CC2)cs1` (stereo not shown) [Compound A238, 1-((4-(3-(1-Cyanocyclopropyl)phenyl)cyclohexyl)methyl)-3-(2-ethynylthiazol-4-yl)urea], the EC50 was at most 200 nM.
Take `C#Cc1nc(NC(=O)NCC2CC=C(c3cccc(C4(C#N)CC4)c3)CC2)cs1` (stereo not shown) [Compound A239, 1-((3′-(1-Cyanocyclopropyl)-2,3,4,5-tetrahydro-[1,1′-biphenyl]-4-yl)methyl)-3-(2-ethynylthiazol-4-yl)urea]: the EC50 was at most 200 nM.
Take `C#Cc1nc(NC(=O)NCC2CCN(c3cccc(C4(C#N)CC4)c3)CC2)cs1` [Compound A240, 1-((1-(3-(1-Cyanocyclopropyl)phenyl)piperidin-4-yl)methyl)-3-(2-ethynylthiazol-4-yl)urea]: the EC50 was at most 200 nM.
Regarding `C#Cc1nccc(NC(=O)N[C@@H](CO)c2ccc(-c3cccc4ncsc34)cc2)n1` [Compound A241, (R)-1-(1-(4-(Benzo[d]thiazol-7-yl)phenyl)-2-hydroxyethyl)-3-(2-ethynyl-pyrimidin-4-yl)urea], the EC50 was at most 200 nM.
Take `C#Cc1nc(NC(=O)N2CCN(c3ccc(-c4cccc(N5CCCC5)c4)cc3)CC2)cs1` [Compound B15, N-(2-Ethynylthiazol-4-yl)-4-(3′-(pyrrolidin-1-yl)-[1,1′-biphenyl]-4-yl)piperazine-1-carboxamide]: the EC50 was at most 200 nM.
`C#Cc1nc(NC(=O)N2CCN(c3ccc(-c4cccc5c4cnn5C)cc3)CC2)cs1` [Compound B18, N-(2-Ethynylthiazol-4-yl)-4-(4-(1-methyl-1H-indazol-4-yl)phenyl)piperazine-1-carboxamide]: the EC50 was at most 200 nM.
Regarding `C#Cc1nc(NC(=O)N2CCN(c3ccc(-c4cccc5ncsc45)cc3)C[C@H]2CO)cs1` [Compound B23, (S)-4-(4-(Benzo[d]thiazol-7-yl)phenyl)-N-(2-ethynylthiazol-4-yl)-2-(hydroxy-methyl)piperazine-1-carboxamide], the EC50 was at most 200 nM.
For `C#Cc1nc(NC(=O)N2CCN(c3ccc(-c4cccc5ncsc45)cc3)C[C@@H]2CO)cs1` [Compound B24, (R)-4-(4-(Benzo[d]thiazol-7-yl)phenyl)-N-(2-ethynylthiazol-4-yl)-2-(hydroxy-methyl)piperazine-1-carboxamide], the EC50 is at most 200 nM.
Turning to `C#Cc1nc(NC(=O)N2CCN(c3ccc(-c4c(C#N)ccc5nc(N)sc45)cc3)CC2)cs1` [Compound B25, 4-(4-(2-Amino-6-cyanobenzo[d]thiazol-7-yl)phenyl)-N-(2-ethynylthiazol-4-yl)-piperazine-1-carboxamide], the EC50 is at most 200 nM.
In the case of `C#Cc1nc(NC(=O)N2CCN(c3ccc(-c4cccc5nc(N)sc45)cc3)CC2)cs1` [Compound B27, 4-(4-(2-Aminobenzo[d]thiazol-7-yl)phenyl)-N-(2-ethynylthiazol-4-yl)piperazine-1-carboxamide] it was at most 200 nM; in that of `C#Cc1nc(NC(=O)N2CCN(c3ccc(-c4cccc5nnsc45)cc3)CC2)cs1` [Compound B28, 4-(4-(Benzo[d][1,2,3]thiadiazol-7-yl)phenyl)-N-(2-ethynylthiazol-4-yl)piperazine-1-carboxamide], at most 200 nM; in that of `C#Cc1nc(NC(=O)N2CCN(c3ccc(-c4cccc(N5CCCC5)c4)cc3)C[C@H]2CO)cs1` [Compound B52, (S)—N-(2-Ethynylthiazol-4-yl)-2-(hydroxymethyl)-4-(3′-(pyrrolidin-1-yl)-[1,1′-biphenyl]-4-yl)piperazine-1-carboxamide], at most 200 nM.
Consider `C#Cc1nc(NC(=O)N2CCN(c3ccc(-c4cccc(N5CCCC5)c4)cc3C#N)C[C@@H]2CO)cs1` [Compound B53, (R)-4-(3-Cyano-3′-(pyrrolidin-1-yl)-[1,1′-biphenyl]-4-yl)-N-(2-ethynylthiazol-4-yl)-2-(hydroxymethyl)piperazine-1-carboxamide], for which the EC50 was at most 200 nM.
With `C#Cc1nc(NC(=O)N2CCN(c3ccc(-c4cccc(N5CCCC5)c4)cc3)C[C@@H]2CO)cs1` [Compound B54, (R)—N-(2-Ethynylthiazol-4-yl)-2-(hydroxymethyl)-4-(3′-(pyrrolidin-1-yl)-[1,1′-biphenyl]-4-yl)piperazine-1-carboxamide], the EC50 was at most 200 nM.
In the case of `C#Cc1nc(NC(=O)N2CCN(c3ccc(-c4cccc(N5CCCC5)c4)cn3)C[C@@H]2CO)cs1` [Compound B56, (R)—N-(2-Ethynylthiazol-4-yl)-2-(hydroxymethyl)-4-(5-(3-(pyrrolidin-1-yl)-phenyl)pyridin-2-yl)piperazine-1-carboxamide] it was at most 200 nM.
Turning to `C#Cc1nc(NC(=O)N2CCN(c3ncc(-c4cccc5ncsc45)cc3C#N)C[C@@H]2CO)cs1` [Compound B59, (R)-4-(5-(Benzo[d]thiazol-7-yl)-3-cyanopyridin-2-yl)-N-(2-ethynylthiazol-4-yl)-2-(hydroxymethyl)piperazine-1-carboxamide], the EC50 is at most 200 nM.
